Tests used:
[1] = tested on: L5178Y mouse-lymphoma cells (ATCC CRL 1722); test: Genotoxicity: Fast Microassay (strand scission factors, PicoGreen); assay type: cell-based
Method: Material: PicoGreen was obtained from Molecular Probes (Leiden, The Netherlands), RPMI1640-medium from Sigma-Aldrich (Taufkirchen, Germany), foetal calf serum (FKS) from Gibco (Karlsruhe, Germany), and black microtitre-plates (96-well-plates) from Nunc (Wiesbaden, Germany). Sorbicillactone A of the batch: 2208/2a was used.
Cells: The genotoxicity of sorbicillactone A was tested on L5178Y mouse-lymphoma cells (ATCC CRL 1722). As described (Müller et al., 1979, Cancer Res. 39:1102-1107), the cells were cultured in RPMI1640-medium supplemented with 10% foetal calf serum (FCS). 10^4 cells/mL were chosen as the inoculum concentration. The cells were incubated for 4 and 24 hours with 1, 3, 10, and 30 μg/mL of sorbicillactone A (1). Following the incubation, the cells were examined with the “Fast Microassay”.
“Fast Microassay”: The method was performed according to a modified method (Batel et al., 1999, Anal. Biochem., 270:195-200). The cells were washed with 1×PBS for two times. After centrifugation, the pellet was taken up in 1×PBS and diluted to […]. 25 μl each of the cell suspension (about 2.5×10^4 cells per well) were pre-pipetted into black microtitre-plates (96-well-plates, Nunc, Wiesbaden). 25 μl 1×PBS were in the controls. Then, 25 μl of lysis solution (7 M urea, 0.1% (w/v) SDS, 0.2 M EDTA, pH=10.0) with PicoGreen (20 μl conc. PicoGreen per 1 mL of lysis solution) were pipetted into the microtitre-plate. Subsequently, the cells were lysed for 40 min in the dark at room temperature. After the incubation, the denaturation (unwinding) of the DNA occurs by the addition of freshly prepared alkaline solution. This is produced in that 20 mL 20 mM of EDTA, and 32 mL of 20 mM EDTA/100 mM NaOH are adjusted to a pH-value of 12.3. The measurement took place immediately in a fluoroscan at an excitation wavelength of 485 nm, and an emission wavelength of 520 nm, every 3 to 5 min, 20 min in total. The results were given as “strand scission factors” (SSF), and calculated following a time of denaturation (time of unwinding) of 20 min according to the following equation: SSF=log (% dsDNA-sample/% dsDNA-control).

[2] = tested on: L5178Y mouse lymphoma cells (ATCC CRL 1722); test: Genotoxicity: Comet-Assay (alkaline electrophoresis, extent tail moment); assay type: cell-based; settings: 1, 3, and 10 μg/mL
Method: Material: “Normal Melting Agarose” (NMA, Cat.-No. 840041) and “Low Melting Agarose” (LMA, Kat.-Nr. 870081) were obtained from Biozym (Hamburg, Germany), Triton x-100 from Fluka (Buchs S G, Schwitzerland), RPMI1640-medium, DMSO, and EDTA from Sigma-Aldrich (Taufkirchen, Germany), NaCl and Tris from Roth (Karlsruhe, Germany) and foetal calf serum (FCS) from Gibco (Karlsruhe, Germany). Sorbicillactone A of the batch: 2208/2a was used.
Cells: The genotoxicity of sorbicillactone A was tested on L5178Y mouse lymphoma cells (ATCC CRL 1722). As described (Müller et al., 1979, Cancer Res. 39:1102-1107), the cells were cultured in RPMI1640-medium with 10 mM Hepes, which was supplemented with 10% foetal calf serum (FCS). As a concentration of the inoculum, 10^4 cells/mL was chosen. The cells were incubated with 1, 3, and 10 μg/mL sorbicillactone A for 4 and 24 hours. After the incubation, the cells were examined with the “Comet-Assay”.
Alkaline electrophoresis: The object slides (Superfrost) were cleaned with acetone. 1.0-percent “Normal Melting Agarose” (NMA) in 1×PBS was cooked, and subsequently about 600 μl of agarose were applied onto an object slide. The object slides were shortly (˜5 min) dried at 50° C., and stored over night at room temperature. Then, the 0.7-percent “Low Melting Agarose” (LMA) was prepared in distilled water. The second layer on the object slides consisted of 200 μl LMA. […]

C/C=C/C=C/C(O)=C1/C(=O)C(C)=C(O)[C@@]2(C)OC(=O)[C@@](C)(NC(=O)/C=C/C(=O)O)[C@@H]12 [sorbicillactone A]
induction of DNA-strand scissions ([1]; 30 μg/mL, 24 hours of incubation): induced DNA-strand scissions
effect on the SSF-values (strand scission factors) ([1]; 1, 3, 10, and 30 μg/mL, 4 hours of incubation, FIG. 3A): nearly no effect
increase of the SSF-values ([1]; 1 to 10 μg/mL, 24 hours): slight, but no significant, increase
increase of the SSF-values (portion of DNA-strand scissions) ([1]; 3 and 30 μg/mL, 24 hours, p<0.001, FIG. 3B): significant increase
change of the extent tail moment (DNA-strand scissions) ([2]; 4 hours incubation, FIG. 2A): did not exhibit significant changes
change of the extent tail moment (DNA-strand scissions) ([2]; 24 hours incubation, FIG. 2B): no significant changes
